Patent US9586949B2, “Aza-heteroaryl compounds as PI3K-gamma inhibitors” (Incyte Corporation, priority 2015, dated 2017)
Where a name gives a salt, the structure may show the parent alone.

Columns and labels:
[1] = target: PI3Kδ (p110δ/p85α) Recombinant Human Protein (Homo sapiens (Human), UniProt O00329); assay: PI3Kδ Scintillation Proximity Assay; format: biochemical; details: 20 μM PIP2, 2 μM ATP, 3.4 nM PI3Kδ, 120 min; read-out: PI3K-delta SPA IC50
Excerpt: [γ-^33P]ATP (10 mCi/mL) and Wheat Germ Agglutinin (WGA) YSi SPA Scintillation Beads was purchased from Perkin-Elmer (Waltham, Mass.). Lipid kinase substrate, D-myo-Phosphatidylinositol 4,5-bisphosphate (PtdIns(4,5)P2)D (+)-sn-1,2-di-O-octanoylglyceryl, 3-O-phospho linked (PIP2), CAS 204858-53-7, was purchased from Echelon Biosciences (Salt Lake City, Utah). PI3Kδ (p110δ/p85α) Recombinant Human Protein was purchased from Eurofins (St Charles, Mo.). ATP, MgCl2, DTT, EDTA, MOPS and CHAPS were purchased from Sigma-Aldrich (St. Louis, Mo.).
(§1) The kinase reaction was conducted in polystyrene 384-well Greiner Bio-one white plate from Thermo Fisher Scientific in a final volume of 25 μL. Inhibitors were first diluted serially in DMSO and added to the plate wells before the addition of other reaction components. The final concentration of DMSO in the assay was 2%. The PI3Kδ assay was carried out at room temperature in 20 mM MOPS, pH 6.7, 10 mM MgCl2, 5 mM DTT and CHAPS 0.03%. Reactions were initiated by the addition of ATP, the final reaction mixture consisted of 20 μM PIP2, 2 μM ATP, 0.5 μCi [γ-^33P] ATP, 3.4 nM PI3Kδ. Reactions were incubated for 120 min and terminated by the addition of 40 μL SPA beads suspended in quench buffer: 163 mM potassium phosphate pH 7.8, 20% glycerol, 25 mM EDTA. The final concentration of SPA beads is 1.0 mg/mL. After the plate sealing, plates were shaken overnight at room temperature and centrifuged at 1500 rpm for 10 min, the radioactivity of the product was determined by scintillation counting on Topcount (Perkin-Elmer). IC50 determination was performed by fitting the curve of percent of the solvent control activity versus the log of the inhibitor concentration using the GraphPad Prism 6.0 software.

[2] = target: PI3Kγ (p110γ) Recombinant Human Protein (Homo sapiens (Human), UniProt P48736); assay: PI3K-γ Scintillation Proximity Assay; format: biochemical; details: 20 μM PIP2, 2 μM ATP, 13 nM PI3Kγ, 120 min; read-out: PI3K-gamma SPA IC50
PI3Kγ (p110γ) Recombinant Human Protein, sequence (P48736 whole entry): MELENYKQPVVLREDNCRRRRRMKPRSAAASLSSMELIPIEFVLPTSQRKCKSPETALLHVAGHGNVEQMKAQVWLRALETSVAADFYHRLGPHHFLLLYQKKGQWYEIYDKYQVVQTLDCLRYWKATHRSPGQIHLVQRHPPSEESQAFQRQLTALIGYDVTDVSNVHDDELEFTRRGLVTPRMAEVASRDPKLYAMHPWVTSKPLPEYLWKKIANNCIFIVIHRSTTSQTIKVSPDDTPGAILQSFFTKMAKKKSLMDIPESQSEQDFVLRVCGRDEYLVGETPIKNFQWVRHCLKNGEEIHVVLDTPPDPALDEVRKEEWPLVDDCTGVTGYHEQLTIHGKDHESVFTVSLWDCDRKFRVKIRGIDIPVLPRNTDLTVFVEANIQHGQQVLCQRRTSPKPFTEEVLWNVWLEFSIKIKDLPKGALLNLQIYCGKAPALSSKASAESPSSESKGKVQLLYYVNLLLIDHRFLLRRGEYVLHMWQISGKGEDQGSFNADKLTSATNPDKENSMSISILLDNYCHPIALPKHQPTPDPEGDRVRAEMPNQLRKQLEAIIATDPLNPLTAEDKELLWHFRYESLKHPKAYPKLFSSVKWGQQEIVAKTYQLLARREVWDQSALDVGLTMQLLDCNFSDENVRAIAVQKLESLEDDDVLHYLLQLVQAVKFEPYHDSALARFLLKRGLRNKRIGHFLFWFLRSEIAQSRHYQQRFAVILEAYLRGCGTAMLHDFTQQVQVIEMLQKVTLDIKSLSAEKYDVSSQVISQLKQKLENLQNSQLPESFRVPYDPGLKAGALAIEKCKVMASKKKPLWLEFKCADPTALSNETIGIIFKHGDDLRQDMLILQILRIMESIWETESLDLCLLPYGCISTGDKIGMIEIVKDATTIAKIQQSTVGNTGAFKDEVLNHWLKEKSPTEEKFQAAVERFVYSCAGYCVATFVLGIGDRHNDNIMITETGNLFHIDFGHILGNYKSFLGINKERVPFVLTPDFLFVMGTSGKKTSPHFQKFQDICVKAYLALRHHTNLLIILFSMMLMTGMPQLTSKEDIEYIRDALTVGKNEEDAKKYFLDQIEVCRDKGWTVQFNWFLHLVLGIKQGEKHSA
Experimental: [γ-^33P]ATP (10 mCi/mL) and Wheat Germ Agglutinin (WGA) YSi SPA Scintillation Beads was purchased from Perkin-Elmer (Waltham, Mass.). […] PI3Kγ (p110γ) Recombinant Human Protein was purchased from Life technology (Grand Island, N.Y.). ATP, MgCl2, DTT, EDTA, MOPS and CHAPS were purchased from Sigma-Aldrich (St. Louis, Mo.).
as §1, with “PI3Kγ” for “PI3Kδ”, “ATP, 3.4 nM PI3Kδ. Reactions were incubated for 120 min and terminated by the addition of 40 μL SPA beads suspended in quench buffer: 163 mM potassium phosphate pH 7.8, 20% glycerol, 25 mM EDTA.” left out

PI3Kδ (p110δ/p85α) Recombinant Human Protein, sequence (O00329 whole entry): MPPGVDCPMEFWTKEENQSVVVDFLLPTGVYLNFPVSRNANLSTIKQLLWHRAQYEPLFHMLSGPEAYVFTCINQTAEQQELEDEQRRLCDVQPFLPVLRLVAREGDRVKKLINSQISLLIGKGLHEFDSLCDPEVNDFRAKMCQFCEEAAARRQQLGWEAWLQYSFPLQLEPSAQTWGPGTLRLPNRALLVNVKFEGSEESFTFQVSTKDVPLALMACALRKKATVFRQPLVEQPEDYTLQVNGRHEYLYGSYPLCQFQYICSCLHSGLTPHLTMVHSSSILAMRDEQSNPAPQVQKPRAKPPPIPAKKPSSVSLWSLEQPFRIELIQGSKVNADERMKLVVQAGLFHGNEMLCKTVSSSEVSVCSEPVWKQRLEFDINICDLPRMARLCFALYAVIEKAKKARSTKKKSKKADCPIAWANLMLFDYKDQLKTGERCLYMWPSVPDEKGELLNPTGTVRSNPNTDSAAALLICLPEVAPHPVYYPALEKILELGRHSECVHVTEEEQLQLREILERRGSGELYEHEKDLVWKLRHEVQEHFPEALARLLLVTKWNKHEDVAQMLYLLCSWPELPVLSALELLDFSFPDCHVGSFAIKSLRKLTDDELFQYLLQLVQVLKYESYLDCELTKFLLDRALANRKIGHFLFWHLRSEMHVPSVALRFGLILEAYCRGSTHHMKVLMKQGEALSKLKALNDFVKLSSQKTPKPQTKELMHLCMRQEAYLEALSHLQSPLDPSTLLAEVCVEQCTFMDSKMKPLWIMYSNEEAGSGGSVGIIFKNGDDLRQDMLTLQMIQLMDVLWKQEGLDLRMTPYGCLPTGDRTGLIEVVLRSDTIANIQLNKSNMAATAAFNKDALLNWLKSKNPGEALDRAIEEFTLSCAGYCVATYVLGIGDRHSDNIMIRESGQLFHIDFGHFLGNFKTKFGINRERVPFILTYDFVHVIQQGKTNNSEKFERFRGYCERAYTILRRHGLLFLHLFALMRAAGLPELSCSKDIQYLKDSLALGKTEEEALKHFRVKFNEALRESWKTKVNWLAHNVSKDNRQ
PI3Kδ (p110δ/p85α) Recombinant Human Protein, sequence (P27986 whole entry partner): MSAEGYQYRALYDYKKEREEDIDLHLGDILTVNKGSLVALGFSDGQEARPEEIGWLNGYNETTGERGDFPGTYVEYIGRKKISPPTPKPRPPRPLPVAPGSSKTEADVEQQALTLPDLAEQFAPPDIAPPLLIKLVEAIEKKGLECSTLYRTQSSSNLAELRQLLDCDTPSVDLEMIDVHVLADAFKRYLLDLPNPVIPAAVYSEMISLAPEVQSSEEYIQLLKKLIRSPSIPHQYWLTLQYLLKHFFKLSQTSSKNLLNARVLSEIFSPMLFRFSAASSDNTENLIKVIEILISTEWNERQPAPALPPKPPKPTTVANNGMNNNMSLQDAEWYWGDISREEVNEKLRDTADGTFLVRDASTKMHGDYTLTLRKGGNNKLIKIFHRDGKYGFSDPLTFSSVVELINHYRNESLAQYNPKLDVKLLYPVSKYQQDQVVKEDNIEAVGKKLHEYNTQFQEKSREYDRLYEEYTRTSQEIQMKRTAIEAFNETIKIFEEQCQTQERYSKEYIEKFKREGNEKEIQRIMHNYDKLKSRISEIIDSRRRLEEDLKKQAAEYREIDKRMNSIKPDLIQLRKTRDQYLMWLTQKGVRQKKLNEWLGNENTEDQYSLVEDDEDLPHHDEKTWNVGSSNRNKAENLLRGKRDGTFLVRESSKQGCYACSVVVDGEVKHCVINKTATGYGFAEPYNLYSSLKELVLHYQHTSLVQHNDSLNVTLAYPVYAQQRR

SMILES | IC50 [1] [nM] | IC50 [2] [nM]
COc1cncc(-c2ccc3nc(-c4nc5ccccc5[nH]4)ccc3c2)c1 [Example 7, 2-(1H-Benzo[d]imidazol-2-yl)-6-(5-methoxypyridin-3-yl)quinoline] | ≥ 5000 | < 1000
CN1CCN(S(=O)(=O)Nc2cncc(-c3ccc4nc(-c5nc6ccccc6[nH]5)oc4c3)c2)CC1 [Example 31, N-(5-(2-(1H-Benzo[d]imidazol-2-yl)benzo[d]oxazol-6-yl)pyridin-3-yl)-4-methylpiperazine-1-sulfonamide] | < 250 | < 250
Fc1ncc(-c2ccc3nc(-c4nc5ccccc5[nH]4)oc3c2)cn1 [Example 70, 2-(1H-Benzo[d]imidazol-2-yl)-6-(2-fluoro-pyrimidin-5-yl)benzo[d] oxazole bis(trifluoroacetate)] | ≥ 5000 | < 1000
O=S(=O)(Nc1cncc(-c2ccc3nc(-c4nc5ccccc5[nH]4)oc3c2)c1)N1CCCCC1 [Example 20, N-(5-(2-(1H-Benzo[d]imidazol-2-yl)benzo[d]oxazol-6-yl)pyridin-3-yl)piperidine-1-sulfonamide] | < 1000 | < 250
OC(c1cncc(-c2ccc3nc(-c4nc5c([nH]4)CCCC5)oc3c2)c1)C(F)(F)F (centres unmarked) [Example 68, 2,2,2-Trifluoro-1-(5-(2-(4,5,6,7-tetrahydro-1H-benzo[d]imidazol-2-yl)benzo[d]oxazol-6-yl)pyridin-3-yl)ethanol] | < 250 | < 250
CCS(=O)(=O)N(C)c1cncc(-c2ccc3nc(-c4nc5ccccc5[nH]4)oc3c2)c1 [Example 73, N-(5-(2-(1H-Benzo [d]imidazol-2-yl)benzo [d]oxazol-6-yl)pyridin-3-yl)-N-methylethanesulfonamide bis(trifluoroacetate)] | < 5000 | < 250
O=S(=O)(Nc1cncc(-c2ccc3nc(-c4ncc[nH]4)oc3c2)c1)c1ccc(F)cc1 [Example 39, N-(5-(2-(1H-Imidazol-2-yl)benzo[d]oxazol-6-yl)pyridin-3-yl)-4-fluorobenzenesulfonamide] | < 250 | < 250
COc1cncc(-c2ccc3nc(-c4cnc(C5CCOC5)[nH]4)oc3c2)c1 (centres unmarked) [Example 43, 6-(5-Methoxy-pyridin-3-yl)-2-(2-(tetrahydro-furan-3-yl)-1H-imidazol-5-yl)benzo[d] oxazole] | ≥ 5000 | < 5000
O=S(=O)(Nc1cc(-c2ccc3nc(-c4nc5ccccc5[nH]4)oc3c2)cnc1F)c1ccc(F)cc1 [Example 30, N-(5-(2-(1H-Benzo[d]imidazol-2-yl)benzo[d]oxazol-6-yl)-2-fluoropyridin-3-yl)-4-fluorobenzenesulfonamide] | < 250 | < 250
c1ccc(CN2CCN(c3ccc4nc(-c5nc6ccccc6[nH]5)oc4c3)CC2)cc1 [Example 55, 2-(1H-Benzimidazol-2-yl)-6-(4-benzylpiperazin-1-yl)-1,3-benzoxazole tris(trifluoroacetate)] | ≥ 5000 | < 5000
Oc1cncc(-c2ccc3nc(-c4nc5ccccc5[nH]4)oc3c2)c1 [Example 14, 5-(2-(1H-Benzo[d]imidazol-2-yl)benzo[d]oxazol-6-yl)pyridin-3-ol] | < 5000 | < 250
COc1cncc(-c2ccc3nc(-c4cnc(-c5ccccc5)[nH]4)oc3c2)c1 [Example 44, 6-(5-Methoxy-pyridin-3-yl)-2-(2-phenyl-1H-imidazol-5-yl)benzo[d] oxazole] | ≥ 5000 | < 250
CCCc1nc(-c2nc3ccc(-c4cncc(NS(=O)(=O)CC)c4)cc3o2)[nH]c1C [Example 64, N-(5-(2-(5-Methyl-4-propyl-1H-imidazol-2-yl)benzo[d]oxazol-6-yl)pyridin-3-yl)ethanesulfonamide bis(trifluoroacetate)] | < 250 | < 250
CCS(=O)(=O)Nc1cncc(-c2ccc3nc(-c4nc(C)c(C)[nH]4)oc3c2)c1 [Example 63, N-(5-(2-(4,5-Dimethyl-1H-imidazol-2-yl)benzo[d]oxazol-6-yl)pyridin-3-yl)ethanesulfonamide bis(trifluoroacetate)] | < 1000 | < 250
CN1CCN(S(=O)(=O)Nc2cc(-c3ccc4nc(-c5nc6ccccc6[nH]5)oc4c3)cnc2F)CC1 [Example 32, N-(5-(2-(1H-Benzo[d]imidazol-2-yl)benzo[d]oxazol-6-yl)-2-fluoropyridin-3-yl)-4-methylpiperazine-1-sulfonamide] | < 250 | < 250
CN(C)S(=O)(=O)Nc1cncc(-c2ccc3nc(-c4ncc[nH]4)oc3c2)c1 [Example 41, N′-{5-[2-(1H-Imidazol-2-yl)-1,3-benzoxazol-6-yl]pyridin-3-yl}-N,N-dimethyl-sulfamide] | < 1000 | < 250
COc1cncc(-c2ccc3nc(-c4cc5ccccc5[nH]4)oc3c2)c1 [Example 5, 2-(1H-Indol-2-yl)-6-(5-methoxypyridin-3-yl)benzo[d]oxazole trifluoroacetate] | < 1000 | < 250
CCn1ncc2ccc(-c3ccc4nc(-c5nc6ccccc6[nH]5)oc4c3)cc21 [Example 54, 2-(1H-benzimidazol-2-yl)-6-(1-ethyl-1H-indazol-6-yl)-1,3-benzoxazole bis(trifluoroacetate)] | ≥ 5000 | < 250
CS(=O)(=O)c1cncc(-c2ccc3nc(-c4nc5ccccc5[nH]4)oc3c2)c1 [Example 36, 2-(1H-Benzo[d]imidazol-2-yl)-6-(5-(methylsulfonyl)pyridin-3-yl)benzo[d]oxazole] | < 5000 | < 250
CCNS(=O)(=O)c1cncc(-c2ccc3nc(-c4nc5ccccc5[nH]4)oc3c2)c1 [Example 59, 5-[2-(1H-Benzimidazol-2-yl)-1,3-benzoxazol-6-yl]-N-ethylpyridine-3-sulfonamide bis(trifluoroacetate)] | ≥ 5000 | < 250
COc1cncc(-c2ccc3nc(-c4cnc(C5CC5)[nH]4)oc3c2)c1 [Example 42, 2-(2-Cyclopropyl-1H-imidazol-5-yl)-6-(5-methoxypyridin-3-yl)benzo[d]oxazole] | < 5000 | < 1000
CN(C)S(=O)(=O)c1cncc(-c2ccc3nc(-c4nc5ccccc5[nH]4)oc3c2)c1 [Example 37, 5-[2-(1H-benzimidazol-2-yl)-1,3-benzoxazol-6-yl]-N,N-dimethylpyridine-3-sulfonamide] | < 1000 | < 250
O=S(=O)(Nc1cncc(-c2ccc3nc(-c4nc5ccccc5[nH]4)oc3c2)c1)c1cccc(F)c1 [Example 19, N-(5-(2-(1H-Benzo[d]imidazol-2-yl)benzo[d]oxazol-6-yl)pyridin-3-yl)-3-fluorobenzenesulfonamide] | < 250 | < 250
CC(C)Oc1cncc(-c2ccc3nc(-c4nc5ccccc5[nH]4)oc3c2)c1 [Example 15, 2-(1H-Benzo[d]imidazol-2-yl)-6-(5-isopropoxypyridin-3-yl)benzo[d]oxazole] | < 5000 | < 1000
CC(=O)Nc1cncc(-c2ccc3nc(-c4nc5ccccc5[nH]4)oc3c2)c1 [Example 33, N-(5-(2-(1H-Benzo[d]imidazol-2-yl)benzo[d]oxazol-6-yl)pyridin-3-yl)acetamide] | ≥ 5000 | < 1000
COc1cncc(-c2ccc3nc(-c4cnc[nH]4)oc3c2)c1 [Example 2, 2-(1H-Imidazol-5-yl)-6-(5-methoxypyridin-3-yl)benzo[d]oxazole trifluoroacetate] | < 5000 | < 5000
COc1cncc(-c2ccc3nc(-c4nc5ccc(Br)cc5[nH]4)oc3c2)c1 [Example 8, 2-(6-Bromo-1H-benzo[d]imidazol-2-yl)-6-(5-methoxypyridin-3-yl)benzo[d]oxazole] |  | < 1000
